From ChEMBL document CHEMBL1201862, “PubChem BioAssay data set” (2004)
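Interpolation was linear, between the two tested concentrations surrounding the appropriate level; five concentrations were tested over 48 hours in 96-well plates. GI50 marks 50% less growth.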 The source made the active and inactive calls. Cut-off read from the data, not from the text of the source: active = GI50 up to about 1.1 µM and inactive = higher.

Experiments:
Assay in all cases: NCI tumour cell line growth inhibition, 48 h
A498 = test system: A498
DU-145 = test system: DU-145
EKVX = test system: EKVX
HL-60 = test system: HL-60
IGROV-1 = test system: IGROV-1
K562 = test system: K562
KM12 = test system: KM12
MDA-MB-435 = test system: MDA-MB-435
MDA-N = test system: MDA-N
MOLT-4 = test system: MOLT-4
Malme-3M = test system: Malme-3M
NCI-H226 = test system: NCI-H226
NCI-H522 = test system: NCI-H522
OVCAR-5 = test system: OVCAR-5
OVCAR-8 = test system: OVCAR-8
SF-539 = test system: SF-539
T47D = test system: T47D
UACC-257 = test system: UACC-257
UO-31 = test system: UO-31
OVCAR-4 = test system: OVCAR-4

Row | Structure (SMILES) | GI50 (A498) | GI50 (DU-145) | GI50 (EKVX) | GI50 (HL-60) | GI50 (IGROV-1) | GI50 (K562) | GI50 (KM12) | GI50 (MDA-MB-435) | GI50 (MDA-N) | GI50 (MOLT-4) | GI50 (Malme-3M) | GI50 (NCI-H226) | GI50 (NCI-H522) | GI50 (OVCAR-5) | GI50 (OVCAR-8) | GI50 (SF-539) | GI50 (T47D) | GI50 (UACC-257) | GI50 (UO-31) | GI50 (OVCAR-4)
1 | CC1Oc2c(c(=O)oc3ccccc23)[C@@]1(C)CC1C[C@H](C)C(=O)O1 (some centres not stated) | > 100 µM (inactive) | 23.3 µM (inactive) | > 100 µM (inactive) | 27.5 µM (inactive) | 33.8 µM (inactive) | 16.8 µM (inactive) | 44.6 µM (inactive) | 21.9 µM (inactive) | 19.9 µM (inactive) | 10.9 µM (inactive) | 19.5 µM (inactive) | > 100 µM (inactive) | 19.5 µM (inactive) | 83.8 µM (inactive) | 30.5 µM (inactive) | 25.2 µM (inactive) | 37.4 µM (inactive) | 35.2 µM (inactive) | 27.6 µM (inactive) | –
2 | N#CC1(C#N)C2CCCCC23OC(=N)C1(C#N)C(c1ccco1)O3 (configuration not stated) | 21.9 µM (inactive) | 25.9 µM (inactive) | 25.8 µM (inactive) | – | 18.3 µM (inactive) | 8.38 µM (inactive) | 33.8 µM (inactive) | 19.8 µM (inactive) | 17.4 µM (inactive) | 23 µM (inactive) | 23.7 µM (inactive) | > 100 µM (inactive) | – | 24.9 µM (inactive) | 23.2 µM (inactive) | 23.8 µM (inactive) | 17.6 µM (inactive) | 17.7 µM (inactive) | 30.3 µM (inactive) | –
3 | [O-][N+](CCO)(CCO)c1ncnc2[nH]cnc12 | > 100 µM (inactive) | > 100 µM (inactive) | > 100 µM (inactive) | – | > 100 µM (inactive) | > 100 µM (inactive) | > 100 µM (inactive) | > 100 µM (inactive) | > 100 µM (inactive) | > 100 µM (inactive) | > 100 µM (inactive) | > 100 µM (inactive) | > 100 µM (inactive) | > 100 µM (inactive) | > 100 µM (inactive) | – | > 100 µM (inactive) | > 100 µM (inactive) | > 100 µM (inactive) | > 100 µM (inactive)
4 | COC(=O)C1=C(C)NC(C)=C(C(=O)OC)C1c1ccc(N=O)cc1 | – | 12.9 µM (inactive) | 17 µM (inactive) | 1.3 µM (inactive) | 16.1 µM (inactive) | 1.07 µM (active) | 18.5 µM (inactive) | 16.2 µM (inactive) | 6.75 µM (inactive) | 3.33 µM (inactive) | 11.5 µM (inactive) | 16 µM (inactive) | 1.15 µM (inactive) | 17.5 µM (inactive) | 8.45 µM (inactive) | 17.7 µM (inactive) | 6.62 µM (inactive) | 8.91 µM (inactive) | 13.2 µM (inactive) | 3.14 µM (inactive)
5 | Cc1c(C)c(C)c(Cn2[nH]c(=O)n(C)c2=O)c(C)c1C | > 100 µM (inactive) | > 100 µM (inactive) | > 100 µM (inactive) | > 100 µM (inactive) | > 100 µM (inactive) | > 100 µM (inactive) | > 100 µM (inactive) | > 100 µM (inactive) | > 100 µM (inactive) | > 100 µM (inactive) | > 100 µM (inactive) | > 100 µM (inactive) | > 100 µM (inactive) | – | > 100 µM (inactive) | > 100 µM (inactive) | > 100 µM (inactive) | > 100 µM (inactive) | > 100 µM (inactive) | –
6 | O=S(=O)(O)c1ccc2c(/N=N/c3ccc(Cl)cc3)c(O)ccc2c1 | > 100 µM (inactive) | > 100 µM (inactive) | > 100 µM (inactive) | – | > 100 µM (inactive) | > 100 µM (inactive) | > 100 µM (inactive) | > 100 µM (inactive) | > 100 µM (inactive) | > 100 µM (inactive) | > 100 µM (inactive) | – | > 100 µM (inactive) | > 100 µM (inactive) | > 100 µM (inactive) | – | 89.3 µM (inactive) | > 100 µM (inactive) | > 100 µM (inactive) | > 100 µM (inactive)
7 | C=CCN1C(=O)C=C(c2ccccc2)n2ncc3cccc1c32 | 44.3 µM (inactive) | > 100 µM (inactive) | 95.5 µM (inactive) | > 100 µM (inactive) | > 100 µM (inactive) | – | 47.8 µM (inactive) | 1.46 µM (inactive) | > 100 µM (inactive) | > 100 µM (inactive) | > 100 µM (inactive) | > 100 µM (inactive) | > 100 µM (inactive) | > 100 µM (inactive) | > 100 µM (inactive) | > 100 µM (inactive) | 18.2 µM (inactive) | > 100 µM (inactive) | > 100 µM (inactive) | –
8 | O=C(C[N+]1(c2ccccc2)CCOCC1)c1ccccc1 | > 100 µM (inactive) | > 100 µM (inactive) | 96.6 µM (inactive) | – | > 100 µM (inactive) | 40.9 µM (inactive) | > 100 µM (inactive) | > 100 µM (inactive) | > 100 µM (inactive) | 30.4 µM (inactive) | > 100 µM (inactive) | > 100 µM (inactive) | 45.7 µM (inactive) | > 100 µM (inactive) | > 100 µM (inactive) | – | > 100 µM (inactive) | 72.8 µM (inactive) | > 100 µM (inactive) | > 100 µM (inactive)
9 | Cc1ccc(S(=O)(=O)n2ccn3c(=O)cc(C)nc23)cc1 | > 10 µM (inactive) | > 10 µM (inactive) | > 10 µM (inactive) | > 10 µM (inactive) | > 10 µM (inactive) | > 10 µM (inactive) | > 10 µM (inactive) | > 10 µM (inactive) | > 10 µM (inactive) | > 10 µM (inactive) | > 10 µM (inactive) | > 10 µM (inactive) | – | > 10 µM (inactive) | > 10 µM (inactive) | > 10 µM (inactive) | > 10 µM (inactive) | > 10 µM (inactive) | > 10 µM (inactive) | > 10 µM (inactive)
10 | CCOc1cc(CC[N+](C)(C)C)c2c(ccc3ccc(OC)c(OC)c32)c1OC | – | > 100 µM (inactive) | > 100 µM (inactive) | – | > 100 µM (inactive) | – | – | > 100 µM (inactive) | > 100 µM (inactive) | > 10 µM (inactive) | > 100 µM (inactive) | – | > 100 µM (inactive) | – | > 100 µM (inactive) | – | > 100 µM (inactive) | – | > 100 µM (inactive) | > 10 µM (inactive)
11 | Brc1ccc(-c2[nH]c3ccccc3c2/C=N\Nc2ccc(-c3nc4ccccc4[nH]3)cc2)cc1 | – | < 0.01 µM (active) | – | < 0.01 µM (active) | < 0.01 µM (active) | < 0.01 µM (active) | < 0.01 µM (active) | < 0.01 µM (active) | < 0.01 µM (active) | < 0.01 µM (active) | < 0.01 µM (active) | < 0.01 µM (active) | < 0.01 µM (active) | < 0.0448 µM (active) | < 0.01 µM (active) | < 0.01 µM (active) | > 56.4 µM (inactive) | 3.17 µM (inactive) | < 0.01 µM (active) | –
12 | COc1nc(-c2c[nH]c3ccccc23)cnc1N | 15.1 µM (inactive) | 23.4 µM (inactive) | 6.35 µM (inactive) | 4.85 µM (inactive) | 19.6 µM (inactive) | 33.6 µM (inactive) | 9.18 µM (inactive) | 23.4 µM (inactive) | 18.4 µM (inactive) | 2.56 µM (inactive) | – | – | – | 14.4 µM (inactive) | 31.5 µM (inactive) | 33.7 µM (inactive) | 1.56 µM (inactive) | 22.4 µM (inactive) | 21.2 µM (inactive) | 29.6 µM (inactive)
13 | Nc1nc(N)c2ncn(Cc3c(Cl)cccc3Cl)c2n1 | > 100 µM (inactive) | > 100 µM (inactive) | 28.4 µM (inactive) | – | > 100 µM (inactive) | – | > 100 µM (inactive) | > 100 µM (inactive) | > 100 µM (inactive) | > 100 µM (inactive) | > 100 µM (inactive) | > 100 µM (inactive) | > 100 µM (inactive) | > 100 µM (inactive) | > 100 µM (inactive) | > 100 µM (inactive) | > 100 µM (inactive) | > 100 µM (inactive) | > 100 µM (inactive) | > 100 µM (inactive)
14 | Cc1ccc(S(=O)(=O)n2cc(/C=C/C#N)c(-c3cn(S(=O)(=O)c4ccc(C)cc4)cc3-c3cn(S(=O)(=O)c4ccc(C)cc4)cc3/C=C/C#N)c2)cc1 | > 100 µM (inactive) | > 100 µM (inactive) | > 100 µM (inactive) | – | > 100 µM (inactive) | 57.4 µM (inactive) | 91.6 µM (inactive) | > 100 µM (inactive) | > 100 µM (inactive) | – | > 100 µM (inactive) | > 100 µM (inactive) | > 100 µM (inactive) | > 100 µM (inactive) | > 100 µM (inactive) | – | > 100 µM (inactive) | > 100 µM (inactive) | 38.4 µM (inactive) | > 100 µM (inactive)
15 | CCOC(=O)c1c(-c2ccc(Cl)cc2)c(C#N)c(=S)n(C2OC(COC(C)=O)C(OC(C)=O)C(OC(C)=O)C2OC(C)=O)c1-c1ccccc1 (configuration not stated) | – | > 100 µM (inactive) | – | > 100 µM (inactive) | > 100 µM (inactive) | > 100 µM (inactive) | > 100 µM (inactive) | > 100 µM (inactive) | > 100 µM (inactive) | > 100 µM (inactive) | > 100 µM (inactive) | – | – | > 100 µM (inactive) | – | > 100 µM (inactive) | > 100 µM (inactive) | > 100 µM (inactive) | > 100 µM (inactive) | > 100 µM (inactive)
16 | O=C1/C(=C/c2ccncc2)C(n2cccc2)c2c(Br)sc(Br)c21 (configuration not stated) | 22.7 µM (inactive) | 3.56 µM (inactive) | 3.1 µM (inactive) | 1.53 µM (inactive) | 1.96 µM (inactive) | 1.82 µM (inactive) | 11.3 µM (inactive) | 2.11 µM (inactive) | 2.52 µM (inactive) | 1.4 µM (inactive) | 3.02 µM (inactive) | – | 11.7 µM (inactive) | 14.3 µM (inactive) | 2.28 µM (inactive) | 3.87 µM (inactive) | 3.73 µM (inactive) | 2.1 µM (inactive) | 2.29 µM (inactive) | –
